The NIST ThermoML archive (doi:10.1007/s10765-009-0625-z)

Test: xn = mol fraction of the nth substance listed
Conditions: Liquid

c1ccc2[nH]ccc2c1 [1H-indole] + Cc1ccc2ccccc2c1
specific volume [m3/kg], 100 kPa
Conditions	293.15 K	303.15 K	313.15 K	323.15 K	333.15 K	343.15 K	353.15 K
x1 = 0.25	0.0009744	0.0009821	0.0009893	0.0009968	0.001005	0.001013	0.00102
x1 = 0.5	0.0009522	0.0009621	0.0009692	0.0009765	0.0009836	0.0009909	0.0009983
x1 = 0.75	–	0.0009406	0.0009471	0.0009539	0.0009609	0.0009674	0.0009747
x1 = 1	–	–	–	0.0009295	0.000936	0.0009428	0.0009499

specific volume [m3/kg], 333.15 K, Constant-volume piezometry
Conditions	x1 = 0.25	x1 = 0.5	x1 = 0.75	x1 = 1
100 kPa	0.001005	0.0009836	0.0009609	0.000936
10000 kPa	0.0009988	0.0009782	0.000956	0.0009315
20000 kPa	0.000993	0.000973	0.0009513	0.0009273
30000 kPa	0.0009876	0.0009679	0.0009467	0.0009228
40000 kPa	0.0009824	0.0009633	0.0009422	0.0009192
50000 kPa	0.0009776	0.0009586	0.0009379	0.0009157
60000 kPa	0.0009732	0.0009544	0.0009341	–
70000 kPa	0.0009685	0.0009504	0.0009304	–
80000 kPa	0.0009645	0.0009464	0.0009267	–
90000 kPa	0.0009607	0.0009427	0.0009233	–
100000 kPa	0.0009569	0.0009391	0.0009198	–
110000 kPa	0.0009533	0.0009358	0.0009167	–
120000 kPa	0.0009497	0.0009325	0.0009134	–
130000 kPa	0.0009464	0.0009292	0.0009104	–
140000 kPa	0.0009432	0.0009262	0.0009077	–
150000 kPa	0.00094	0.0009231	0.0009048	–
160000 kPa	0.0009369	0.0009202	0.000902	–
170000 kPa	0.000934	0.0009174	–	–
180000 kPa	–	0.0009148	–	–
190000 kPa	–	0.0009122	–	–
200000 kPa	–	0.0009095	–	–
210000 kPa	–	0.000907	–	–
220000 kPa	–	0.0009047	–	–
230000 kPa	–	0.0009023	–	–
240000 kPa	–	0.0008999	–	–
250000 kPa	–	0.0008977	–	–
260000 kPa	–	0.0008956	–	–
270000 kPa	–	0.0008934	–	–
